In PMC8480901 (PLoS ONE, 2021):
Where “and” joins values, the source holds several entries; their conditions need not be identical. Equal values may be shown once.

System: J774.2 mouse macrophages
Assay: LPS-induced cytokine and chemokine levels in J774.2 mouse macrophage cell supernatant (ELISA)
Assay type: cell-based
Conditions: LPS; for TNF-α / CCl2, % reduction / CCl2, Mean / GM-CSF % reduction / GM-CSF Mean / IL-1β % reduction / IL-1β Mean / IL-6 % reduction / IL-6 Mean / TNF-α % reduction / TNF-α Mean / CCl2 / CXCL1 / GM-CSF / IL-1β / IL-6: J774.2 supernatant; for TNF-α / CCl2 / CXCL1 / GM-CSF / IL-1β / IL-6 / CXCL2 / MMP9: individual replicate; for CXCL2 / MMP9: J774.2 cells

C=C[C@]1(C)C[C@@H](OC(=O)CS[C@@H]2CC[C@@H](N)C[C@H]2O)[C@]2(C)[C@H](C)CC[C@]3(CCC(=O)[C@H]32)[C@@H](C)[C@@H]1O [Lefamulin] was tested, and the TNF-α (0.3 µM) was 1489.0 pg/mL and 1477.5 pg/mL, the CCl2, % reduction (1 µM) was -9% and the “CCl2, Mean” value (1 µM) was 39289 pg/mL. For the same compound, the GM-CSF % reduction (1 µM) was 60%, the “GM-CSF Mean” value (1 µM) was 564 pg/mL and the IL-1β % reduction (1 µM) was -12%. The “IL-1β Mean” value (1 µM) was 213 pg/mL, the IL-6 % reduction (1 µM) was 0.856% and the “IL-6 Mean” value (1 µM) was 76721 pg/mL. The TNF-α % reduction (1 µM) was -11%, the “TNF-α Mean” value (1 µM) was 1515 pg/mL and the CCl2 (1 µM) was 38237.3 pg/mL and 40341.1 pg/mL. For the same compound, the CXCL1 (1 µM) was 25.5 pg/mL and 26.1 pg/mL, the GM-CSF (1 µM) was 597.3 pg/mL and 530.6 pg/mL and the IL-1β (1 µM) was 223.29 pg/mL and 203.668 pg/mL. For the same compound, the IL-6 (1 µM) was 75165 pg/mL and 78277 pg/mL, the TNF-α (1 µM) was 1503.6 pg/mL and 1525.6 pg/mL and the CCl2, % reduction (3 µM) was -16%. For the same compound, the “CCl2, Mean” value (3 µM) was 41389 pg/mL, the GM-CSF % reduction (3 µM) was 51% and the “GM-CSF Mean” value (3 µM) was 681 pg/mL. The IL-1β % reduction (3 µM) was 12%, the “IL-1β Mean” value (3 µM) was 168 pg/mL and the IL-6 % reduction (3 µM) was 0.505%. For the same compound, the “IL-6 Mean” value (3 µM) was 76992 pg/mL, the TNF-α % reduction (3 µM) was -11% and the “TNF-α Mean” value (3 µM) was 1517 pg/mL. For the same compound, the CCl2 (3 µM) was 47549.1 pg/mL and 35229.8 pg/mL, the CXCL1 (3 µM) was 27.5 pg/mL and 27.6 pg/mL and the GM-CSF (3 µM) was 645.8 pg/mL and 715.5 pg/mL. For the same compound, the IL-1β (3 µM) was 151.548 pg/mL and 184.21 pg/mL, the IL-6 (3 µM) was 76816 pg/mL and 77168 pg/mL and the TNF-α (3 µM) was 1470.9 pg/mL and 1563.2 pg/mL. The CCl2, % reduction (10 µM) was -20%, the “CCl2, Mean” value (10 µM) was 42850 pg/mL and the GM-CSF % reduction (10 µM) was 25%. For the same compound, the “GM-CSF Mean” value (10 µM) was 1034 pg/mL, the IL-1β % reduction (10 µM) was 16% and the “IL-1β Mean” value (10 µM) was 160 pg/mL. The IL-6 % reduction (10 µM) was 11%, the “IL-6 Mean” value (10 µM) was 69181 pg/mL and the TNF-α % reduction (10 µM) was -18%. The “TNF-α Mean” value (10 µM) was 1616 pg/mL, the CCl2 (10 µM) was 49014.8 pg/mL and 36684.7 pg/mL and the CXCL1 (10 µM) was 35.9 pg/mL and 33.8 pg/mL. For the same compound, the GM-CSF (10 µM) was 1124.4 pg/mL and 943.6 pg/mL, the IL-1β (10 µM) was 178.332 pg/mL and 142.562 pg/mL and the IL-6 (10 µM) was 73782 pg/mL and 64579 pg/mL. For the same compound, the TNF-α (10 µM) was 1578.1 pg/mL and 1653.1 pg/mL, the CCl2, % reduction (30 µM) was -35% and the “CCl2, Mean” value (30 µM) was 47970 pg/mL. For the same compound, the GM-CSF % reduction (30 µM) was -22%, the “GM-CSF Mean” value (30 µM) was 1662 pg/mL and the IL-1β % reduction (30 µM) was 6%. The “IL-1β Mean” value (30 µM) was 179 pg/mL, the IL-6 % reduction (30 µM) was 25% and the “IL-6 Mean” value (30 µM) was 57940 pg/mL. For the same compound, the TNF-α % reduction (30 µM) was -31%, the “TNF-α Mean” value (30 µM) was 1789 pg/mL and the CCl2 (30 µM) was 51706.3 pg/mL and 44234.6 pg/mL. For the same compound, the CXCL1 (30 µM) was 87.9 pg/mL and 85.2 pg/mL, the GM-CSF (30 µM) was 1753.9 pg/mL and 1570.0 pg/mL and the IL-1β (30 µM) was 181.679 pg/mL and 176.699 pg/mL. The IL-6 (30 µM) was 56206 pg/mL and 59673 pg/mL, the TNF-α (30 µM) was 1766.5 pg/mL and 1811.5 pg/mL and the CCl2, % reduction (100 µM) was 26%. The “CCl2, Mean” value (100 µM) was 27179 pg/mL, the GM-CSF % reduction (100 µM) was -29% and the “GM-CSF Mean” value (100 µM) was 1755 pg/mL. The IL-1β % reduction (100 µM) was -71%, the “IL-1β Mean” value (100 µM) was 325 pg/mL and the IL-6 % reduction (100 µM) was 46%. For the same compound, the “IL-6 Mean” value (100 µM) was 42097 pg/mL, the TNF-α % reduction (100 µM) was -249% and the “TNF-α Mean” value (100 µM) was 4717 pg/mL. The CCl2 (100 µM) was 26262.5 pg/mL and 28095.5 pg/mL, the CXCL1 (100 µM) was 258.9 pg/mL and 215.6 pg/mL and the GM-CSF (100 µM) was 1833.3 pg/mL and 1676.9 pg/mL. For the same compound, the IL-1β (100 µM) was 330.455 pg/mL and 319.964 pg/mL, the IL-6 (100 µM) was 40652 pg/mL and 43542 pg/mL and the TNF-α (100 µM) was 4063.6 pg/mL and 5370.1 pg/mL. The “CXCL2” value (compound 0.03 µM) was 31852.1 pg/mL and 31453.1 pg/mL, the “MMP9” value (compound 0.03 µM) was 895.68 pg/mL and 982.757 pg/mL and the “CXCL2” value (compound 0.1 µM) was 30865.4 pg/mL and 29898.5 pg/mL. The “MMP9” value (compound 0.1 µM) was 770.463 pg/mL and 867.766 pg/mL, the “CXCL2” value (compound 0.3 µM) was 32714.1 pg/mL and 32124.3 pg/mL and the “MMP9” value (compound 0.3 µM) was 798.08 pg/mL and 882.55 pg/mL. The “CXCL2” value (compound 1 µM) was 35082.5 pg/mL and 36713.0 pg/mL, the “MMP9” value (compound 1 µM) was 879.359 pg/mL and 1004.8 pg/mL and the “CXCL2” value (compound 3 µM) was 37039.4 pg/mL and 32794.8 pg/mL. The “MMP9” value (compound 3 µM) was 913.107 pg/mL and 886.534 pg/mL, the “CXCL2” value (compound 10 µM) was 36052.8 pg/mL and 33589.2 pg/mL and the “MMP9” value (compound 10 µM) was 894.885 pg/mL and 781.214 pg/mL. For the same compound, the “CXCL2” value (compound 30 µM) was 37378.3 pg/mL and 38345.7 pg/mL, the “MMP9” value (compound 30 µM) was 446.696 pg/mL and 398.398 pg/mL and the “CXCL2” value (compound 100 µM) was 37906.2 pg/mL and 37582.2 pg/mL. The “MMP9” value (compound 100 µM) was 104.703 pg/mL and 78.135 pg/mL.
